Measurements: patent US6441053B1, “Inhibitors of glycogen synthase kinase-3 and methods for identifying and using the same” (The Trustees of the University of Pennsylvania, priority 1996, dated 2002)
Like-named read-outs stand apart in the source and are kept apart here.

Key:
GSK-3β = GSK-3β (Oryctolagus cuniculus, UniProt G1T8E2); experiment: In vitro GSK-3β activity assay (32P incorporation into substrate); type: biochemical, rabbit; conditions: for inhibition of phosphorylation of peptide substrate by GSK-3β: 20 mM of the salt in the assay mixture; for GSK-3β phosphorylation of I-2: 20 mM salt, GS-2 and τ protein phosphorylation not inhibited
Sequence of GSK-3β (G1T8E2 1-432): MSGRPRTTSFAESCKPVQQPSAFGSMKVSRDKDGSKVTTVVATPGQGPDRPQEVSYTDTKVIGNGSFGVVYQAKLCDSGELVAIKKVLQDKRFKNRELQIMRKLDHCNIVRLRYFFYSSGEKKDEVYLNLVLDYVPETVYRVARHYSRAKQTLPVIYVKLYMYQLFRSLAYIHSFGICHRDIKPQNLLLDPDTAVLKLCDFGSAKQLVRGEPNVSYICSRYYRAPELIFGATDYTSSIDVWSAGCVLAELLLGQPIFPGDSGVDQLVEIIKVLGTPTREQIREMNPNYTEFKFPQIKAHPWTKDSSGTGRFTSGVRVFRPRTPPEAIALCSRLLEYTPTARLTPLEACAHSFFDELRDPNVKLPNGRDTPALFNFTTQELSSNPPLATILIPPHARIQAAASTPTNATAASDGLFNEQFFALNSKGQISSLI
Protocol: GSK-3β was assayed as described in the following paragraph using 0.5-1.0 units of GSK-3β per assay. […] GSK-3 buffer comprises 20 mM Tris-HCl, 10 mM MgCl2, 5 mM dithiothreitol, and has a pH of 7.5 at 20° C.
The assay mixture comprised 1×GSK-3 buffer, an amount of a kinase enzyme corresponding to 0.5-1.0 unit of activity, a substrate, and 200 μM [γ^32P]-ATP (approximately 500 μCi/μmol). The assay mixture was incubated for a selected period of time following which incorporation of ^32P into the substrate was determined by standard methods.
When I-2 was used as the substrate for […] in the assay, I-2 was present at a concentration of 50 μg/ml. […] The activities of protein kinase A (PKA), mitogen-activating protein kinase (ERK-1/MAP kinase), and casein kinase II (CKII) were assayed under conditions similar to those used to assay […] activity, except that β-mercaptoethanol was included in the PKA assays.

[1] = molecular target: T1, inositol monophosphatase (IMPase) (Xenopus laevis, UniProt P29219); experiment: IMPase activity in lysates prepared from Xenopus embryos; type: biochemical
T1 construct: The thirty embryos were then lysed in 300 μl of IMPB; endogenous in cells; host or cells: Xenopus embryos (32-cell stage lysate supernatant; 8- to 16-cell stage embryos injected in vivo)
T1 sequence (P29219 whole entry): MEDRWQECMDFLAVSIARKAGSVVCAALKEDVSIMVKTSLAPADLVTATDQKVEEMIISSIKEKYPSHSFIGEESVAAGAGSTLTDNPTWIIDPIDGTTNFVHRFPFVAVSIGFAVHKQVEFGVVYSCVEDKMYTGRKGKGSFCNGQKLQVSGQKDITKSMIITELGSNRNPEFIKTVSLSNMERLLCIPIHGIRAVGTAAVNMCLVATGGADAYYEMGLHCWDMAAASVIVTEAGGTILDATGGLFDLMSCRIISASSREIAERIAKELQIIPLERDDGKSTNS
Protocol: Thirty Xenopus embryos at the 32-cell stage were washed with 1 ml of 50 mM Tris, pH 7.8, 250 mM KCl, 3 mM MgCl2 (IMPB). The thirty embryos were then lysed in 300 μl of IMPB. The lysate was centrifuged for 5 minutes at 20,000×g at 4° C. and the resulting lysate supernatant was recovered. […] Each lysate supernatant mixture was then incubated at room temperature for 5 minutes. One μl of ^3H-inositol-1-phosphate was added to each lysate supernatant mixture, and the incubation was continued for an additional 25 minutes. Each lysate supernatant mixture was then diluted with 1.0 ml of 0.1×MMR, boiled for 5 minutes, and applied to Dowex columns as described (Berridge et al., 1983, Biochem. J. 212:473-482). Inositol was not retained by the Dowex column, and inositol-1-phosphate was eluted by application of 3 ml of 0.1 M formic acid/1.5 M ammonium formate (Berridge et al., 1983, supra). Each assay was repeated two to four times, and similar results were obtained among all replicates.

[2] = molecular target: T1, inositol monophosphatase (IMPase); experiment: IMPase activity in vivo in injected ventral-vegetal blastomeres; conditions: 10 nl of 5 mM L-690,330 microinjected into blastomeres
Protocol: Following dilution, 10 nl of the diluted ^3H-inositol-1-phosphate solution was injected into a single ventral-vegetal blastomere of an embryo which was at the 8- to 16-cell stage. […] The lysate was prepared and applied to Dowex columns as described above.

Xenopus laevis embryo = experiment: Dorsalization and development of treated or microinjected Xenopus embryos; type: in vivo
Protocol: Xenopus eggs were fertilized in vitro according to well established protocols (Peng, 1991, in Appendix A of Methods in Cell Biology, Kay et al., eds., Academic Press Inc, San Diego). Microinjection of embryos was performed using embryos at the 1-cell to 32-cell stage, and a volume of 5-10 nl was injected into each embryo.
L-690,330 was dissolved in water to form a solution having a concentration of L-690,330 in the range of 0.1 to 10 mM, and 5 to 10 nl of the L-690,330 solution was injected into the ventral vegetal region of 4, 8, 16, and 32 cell embryos. All four cells of individual 4-cell embryos were injected in separate experiments.

IMPase = IMPase (Homo sapiens, UniProt P29218); conditions: Atack et al., 1993; cited from earlier work
Sequence of IMPase (P29218 whole entry): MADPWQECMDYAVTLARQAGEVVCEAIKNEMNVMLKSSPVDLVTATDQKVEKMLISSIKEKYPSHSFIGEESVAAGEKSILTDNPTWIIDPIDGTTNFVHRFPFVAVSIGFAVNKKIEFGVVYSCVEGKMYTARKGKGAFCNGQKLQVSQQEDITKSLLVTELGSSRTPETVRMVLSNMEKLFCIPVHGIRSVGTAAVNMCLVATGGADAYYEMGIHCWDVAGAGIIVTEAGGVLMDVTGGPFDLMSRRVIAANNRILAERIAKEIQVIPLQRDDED

Xenopus embryos = experiment: Second axis formation in Xenopus embryos injected with DN-GSK-3 mRNA with or without myo-inositol; type: in vivo, Xenopus laevis
Protocol: mRNA specifying DN-GSK-3 was microinjected into the subequatorial region of a ventral-vegetal blastomere in an embryo at the 16-cell stage. A volume of either 5 nl or 10 nl was microinjected depending upon the concentration of mRNA in the solution being microinjected. The same procedure was used to microinject myo-inositol into an embryo. In most experiments, 10 embryos were harvested at stage 8 to assess the level of DN-GSK-3protein expressed from the injected mRNA, and the level of DN-GSK-3protein in other embryos was assessed at stage 30-35.

[Cl-].[Na+] [NaCl]
inhibition of phosphorylation of peptide substrate by GSK-3β (GSK-3β): Little inhibition
GSK-3β phosphorylation of I-2 (GSK-3β): partially inhibited

Cl.N [NH4Cl]
inhibition of phosphorylation of peptide substrate by GSK-3β (GSK-3β): Little inhibition

CC(Oc1ccc(O)cc1)(P(=O)(O)O)P(=O)(O)O [L-690,330]
IC50 ([1]; read-out: concentration giving 50% inhibition of in vitro IMPase activity, lysates prepared from Xenopus embryos): ~1 µM
IC50 ([1]; read-out: concentration of L-690,330 giving approximately 50% inhibition of IMPase activity, FIG. 1 Panel A legend): ~1000 µM
level of inhibition of IMPase activity in vivo compared with 10 nl of 0.3 M LiCl [2]: several times greater
dorsalization of Xenopus embryo (Xenopus laevis embryo; 0.3 M LiCl for 6 minutes at 32-cell stage, or injection of 10 nl of 5 mM L-690,330): did not exhibit dorsalization
toxicity in microinjected embryos (Xenopus laevis embryo; highest doses of L-690,330 used): mild nonspecific toxicity
effect on development of Xenopus embryos (Xenopus laevis embryo; microinjected embryos): no discernible effect
potency as inhibitor of IMPase activity relative to lithium (IMPase): approximately thousand-fold

[Cl-].[Cs+] [CsCl]
inhibition of phosphorylation of peptide substrate by GSK-3β (GSK-3β): Little inhibition

Cn1cc(C2=C(c3cn(CCCSC(=N)N)c4ccccc34)C(=O)NC2=O)c2ccccc21 [Ro31-8220]
IC50 (GSK-3β; read-out: concentration giving approximately 50% inhibition of GSK-3β activity, assays of Example 1, 0 to 10 μM tested): ~0.04 µM

O[C@H]1[C@H](O)[C@@H](O)[C@H](O)[C@@H](O)[C@H]1O [myo-inositol]
effect of coinjection on second axis induction by DN-GSK-3 (Xenopus embryos; coinjected with DN-GSK-3 mRNA into ventral-vegetal cell of 16-cell embryos): clearly reduced the frequency and the extent of second axis induction
effect on synthesis of DN-GSK-3 protein (Xenopus embryos; in vivo): did not inhibit

[Cl-].[K+] [KCl]
inhibition of phosphorylation of peptide substrate by GSK-3β (GSK-3β): Little inhibition
GSK-3β phosphorylation of I-2 (GSK-3β): partially inhibited
